From patent US20240075050A1, “Methods and Compositions for Treating Leucine Rich Repeat Kinase 2 (LRRK2)-Associated Disorder or Condition” (University of Connecticut, priority 2022, published 2024) come the findings set out here.

In test [1] the test system is LRRK2-G2019S transgenic flies. Kind of test: LRRK2-induced DA neurodegeneration in LRRK2-G2019S transgenic Drosophila. The format is in vivo. The conditions noted are these: 9-week-old flies, fly food with 1 mM AICAr from posteclosion. From the text:
Administration of AICAr into LRRK2 Drosophila. Ddc-GAL4 and UAS-GFP fly lines were obtained from Bloomington Stock Center. pUAST-attB-LRRK2 WT and G2019S were microinjected into Drosophila embryos (BestGene Inc.)^30. The resulting transgenic flies were crossed with Ddc-GAL4>UAS-GFP, which induces the co-expression of GFP, […] LRRK2 in dopamine and serotonin neurons. To study the effects of AICAr on LRRK2-induced dopaminergic neurodegeneration, flies were fed with regular fly food supplemented with 1 mM AICAr immediately at the posteclosion until 9-week-old.

The next test deals with LRRK2 mRNA. Put plainly: LRRK2 mRNA stability assay in the presence of actinomycin D. The format is cell-based, human. The conditions noted are these: SH-SY5Y, 2 mM AICAr, 24-h period, 10 μg/ml actinomycin D. How it is done: FIGS. 3A-3J depict that AICAr regulates LRRK2 at mRNA level and through a specific region. FIGS. 3A and 3B depict the LRRK2 protein levels upon treatment of AICAr together with a proteasome inhibitor MG132 or an autophagy inhibitor chloroquine (CQ). […] LRRK2 expression levels were analyzed by Western blot. Images were quantified by ImageJ software. Data are mean±SEM, n=3 independent experiments. ***p<0.001, ****p<0.0001 by one-way ANOVA followed by a Tukey's post hoc test. FIG. 3C depicts the LRRK2 and GBA mRNA levels upon AICAr treatment. SH-SY5Y cells were treated with or without 2 mM AICAr for 24 hours. Total RNA was extracted. LRRK2 and GBA mRNA levels were analyzed by real-time PCR. Data are mean±SEM, n=4 independent experiments. **p<0.01 by Student's t tests. ns: not statistically significant. […] LRRK2 mRNA levels were analyzed by real-time PCR. […] LRRK2 expression levels were analyzed by Western blot. Images were quantified by ImageJ software. […] LRRK2 deletion mutant expression levels were analyzed by Western blot. FIGS. 3I and 3J depict that the specific region (2221-3927 bp) of the synthesized Flag-LRRK2 cDNA was replaced with the native sequence and the response of this chimeric LRRK2 cDNA expression to AICAr treatment was analyzed by Western blot. Images were quantified by ImageJ software. […]

A further test deals with DCP1A. Put plainly: DCP1A expression levels in SH-SY5Y cells, Western blot. The test is classed as cell-based, human. The conditions noted are these: 1 mM, 48 hours. How it is done:
FIGS. 6A-6E depict that the decapping enzyme complex DCP1/2 is involved in LRRK2 mRNA decay. FIGS. 6A and 6B depict the DCP1A and DCP2 expression levels upon AICAr treatment. SH-SY5Y cells were treated with or without 1 mM AICAr for 48 hours. DCP1A and DCP2 expression levels were analyzed by Western blot. Images were quantified by ImageJ software. Data are mean±SEM, n=3 independent experiments. **p<0.01 by Student's t tests. FIGS. 6C and 6D depict the LRRK2 expression levels upon DCP1A or DCP2 overexpression. SH-SY5Y cells were transduced with lentiviruses carrying Flag-DCP1A or Flag-DCP2 for 48 hours. LRRK2 expression levels were analyzed by Western blot. Images were quantified by ImageJ software. Data are mean±SEM, n=3 independent experiments. *p<0.05 by Student's t tests. FIG. 6E depict LRRK2 mRNA decapping by DCP1A and DCP2. Recombinant DCP1A and DCP2 proteins were purified from HEK 293T cells and incubated with [α-32P]cap-labeled LRRK2 RNA. LRRK2 mRNA decapping was analyzed by one-dimensional thin layer chromatography.

Regarding `NC(=O)c1ncn([C@@H]2O[C@H](CO)[C@@H](O)[C@H]2O)c1N` [AICAr, 5-aminoimidazole-4-carboxamide riboside], in test [1], the “LRRK2-GS induced DA neurodegeneration (DA neuron numbers)” value was “rescued”. In addition, the “acceleration of LRRK2 mRNA decay” value in the test with LRRK2 mRNA was “about twofold”. In addition, in the test on DCP1A, the “endogenous levels of DCP1A” value is on record as “significantly increased”.
